As usually defined, the IC50 is the point on the concentration scale where inhibition reaches its midpoint.

Assay [1] relates to transgenic Arabidopsis AMATU_PPO2_G211A_F420M. In words: Germination assay, transgenic ARBTH germinating in medium containing selection agent (48-well plates). The assay is classed as in vivo, Arabidopsis thaliana. The note with it: for IC50: Arabidopsis thaliana. Here is the method:
(§1) Transgenic Arabidopsis thaliana plants are assayed for improved tolerance to saflufenacil, 1,5-dimethyl-6-thioxo-3-(2,2,7-trifluoro-3-oxo-4-(prop-2-ynyl)-3,4-dihydro-2H-benzo[b][1,4]oxazin-6-yl)-1,3,5-triazinane-2,4-dione (CAS 1258836-72-4/trifludimoxazin), flumioxazin, butafenacil, acifluorfen, lactofen, bifenox, sulfentrazone, and photosynthesis inhibitor diuron as negative control in 48-well plates. Therefore, T2 seeds are surface sterilized by stirring for 5 min in ethanol+water (70+30 by volume), rinsing one time with ethanol+water (70+30 by volume) and two times with sterile, deionized water. The seeds are resuspended in 0.1% agar dissolved in water (w/v) Four to five seeds per well are plated on solid nutrient medium consisting of half-strength murashige skoog nutrient solution, pH 5.8 (Murashige and Skoog (1962) Physiologia Plantarum 15: 473-497). Compounds are dissolved in dimethylsulfoxid (DMSO) and added to the medium prior solidification (final DMSO concentration 0.1%). Multi well plates are incubated in a growth chamber at 22° C., 75% relative humidity and 110 μmol Phot*m^−2*s^−1 with 14: 10 h light: dark photoperiod. Growth inhibition is evaluated seven to ten days after seeding in comparison to wild type plants.
as §1, with “negative control,” for “negative control”, “inhibition was” for “inhibition is”, “plants. Additionally, transgenic T1 Arabidopsis plants were tested for improved tolerance to herbicides in greenhouse studies with the following herbicides: saflufenacil, 1,5-dimethyl-6-thioxo-3-(2,2,7-trifluoro-3-oxo-4-(prop-2-ynyl)-3,4-dihydro-2H-benzo[b][1,4]oxazin-6-yl)-1,3,5-triazinane-2,4-dione (CAS 1258836-72-4/trifludimoxazin), flumioxazin, butafenacil, acifluorfen, lactofen, bifenox, sulfentrazone, and photosynthesis inhibitor diuron as negative control.” for “plants.”

Assay [2] relates to transgenic Arabidopsis AMATU_PPO2_wild_type. Described as above. The assay is classed as in vivo, Arabidopsis thaliana. As for the experimental part: as §1
as §1, with “negative control,” for “negative control”, “inhibition was” for “inhibition is”, “plants. Additionally, transgenic T1 Arabidopsis plants were tested for improved tolerance to herbicides in greenhouse studies with the following herbicides: saflufenacil, 1,5-dimethyl-6-thioxo-3-(2,2,7-trifluoro-3-oxo-4-(prop-2-ynyl)-3,4-dihydro-2H-benzo[b][1,4]oxazin-6-yl)-1,3,5-triazinane-2,4-dione (CAS 1258836-72-4/trifludimoxazin), flumioxazin, butafenacil, acifluorfen, lactofen, bifenox, sulfentrazone, and photosynthesis inhibitor diuron as negative control.” for “plants.”

Assay [3] concerns non-transgenic (MC-24) Arabidopsis. Nature of the assay: Germination assay, ARBTH germinating in medium containing selection agent (48-well plates). The class given is in vivo, Arabidopsis thaliana. Here is the method: Transgenic Arabidopsis thaliana plants are assayed for improved tolerance to saflufenacil, 1,5-dimethyl-6-thioxo-3-(2,2,7-trifluoro-3-oxo-4-(prop-2-ynyl)-3,4-dihydro-2H-benzo[b][1,4]oxazin-6-yl)-1,3,5-triazinane-2,4-dione (CAS 1258836-72-4/trifludimoxazin), flumioxazin, butafenacil, acifluorfen, lactofen, bifenox, sulfentrazone, and photosynthesis inhibitor diuron as negative control in 48-well plates. Therefore, T2 seeds are surface sterilized by stirring for 5 min in ethanol+water (70+30 by volume), rinsing one time with ethanol+water (70+30 by volume) and two times with sterile, deionized water. […] Growth inhibition is evaluated seven to ten days after seeding in comparison to wild type plants.
Transgenic Arabidopsis thaliana plants are assayed for improved tolerance to saflufenacil, 1,5-dimethyl-6-thioxo-3-(2,2,7-trifluoro-3-oxo-4-(prop-2-ynyl)-3,4-dihydro-2H-benzo[b][1,4]oxazin-6-yl)-1,3,5-triazinane-2,4-dione (CAS 1258836-72-4/trifludimoxazin), flumioxazin, butafenacil, acifluorfen, lactofen, bifenox, sulfentrazone, and photosynthesis inhibitor diuron as negative control, in 48-well plates. […] Growth inhibition was evaluated seven to ten days after seeding in comparison to wild type plants. […]

In assay [4] the test system is empty vector-transformed leaf discs. In words: PSII yield inhibition in tobacco leaf discs (imaging PAM chlorophyll fluorescence). The note with it: Nicotiana benthamiana, read-out: IC50 of PSII yield inhibition. The assay is classed as cell-based. From the text: Transient expression of mutated PPO sequences as wildtype or with respective mutations were done as described previously (Voinnet O., et al., 2003, The Plant Journal 33, 949-956). In brief, cloning of GOI and Agrobacterium transformation (strain: GV2260) were done as described in EXAMPLE 5. Young leaves of Nicotiana benthamiana were infiltrated with transgenic Agrobacterium suspension (OD^600 of 1.0) harboring binary vector constructs containing a GO/gene controlled by a promoter and terminator sequence. 48 h to 72 h after infiltration punches of leave discs (0.75 cm in diameter) were transferred to 6-well plates with medium (half strength Linsmaier-Skoog (Linsmaier and Skoog (1965) Physiol. Plant. 18: 100-127) nutrient solution or water) containing herbicide of interest in different concentrations. […]
Leaf discs, generated as described in EXAMPLE 14, expressing a protein encoded by GOI, were subjected to analysis on improved tolerance to herbicide treatment. For analysis of herbicide damage, chlorophyll fluorescence were identified as indicative marker (Dayan and Zaccaro (2012) Pest. Biochem. Physiol. 102: 189-197). […] PSII yield were measured as per manufacturer instructions.
Tolerance factors were calculated based on IC50 values of PSII yield inhibition of transformed versus empty vector-transformed leaf discs.

Read-outs that look alike come from different tables or passages of the source.

Turning to `CC(C)N(C)S(=O)(=O)NC(=O)c1cc(-n2c(=O)cc(C(F)(F)F)n(C)c2=O)c(F)cc1Cl` [Saflufenacil], the IC50 in assay [1] (Event D) was 25 µM; in assay [1] (Event M), 25 µM; in assay [1] (Event P), 7.5 µM; in assay [1] (Event Q), 7.5 µM; in assay [1] (Event R), 7.5 µM; in assay [2] (Arabidopsis thaliana) it was 0.106 µM. Also, the IC50 in assay [3] (Arabidopsis thaliana) turned out to be 0.025 µM; in assay [4] (48 h), 0.11 µM. The “Tolerance Factor (non transgeneic = 1.0)” value in assay [1] (Event D) is reported as 1000; in assay [1] (Event M), 1000; in assay [1] (Event P), 300; in assay [1] (Event Q), 300; in assay [1] (Event R) it was 300; in assay [2], 10. Also, the “Tolerance Factor (non transgeneic = 1.0)” value in assay [3] is listed as 1.

Consider `C#CCN1C(=O)C(F)(F)Oc2cc(F)c(-n3c(=O)n(C)c(=S)n(C)c3=O)cc21` [1,5-dimethyl-6-thioxo-3-(2,2,7-trifluoro-3-oxo-4-(prop-2-ynyl)-3,4-dihydro-2H-benzo[b][1,4]oxazin-6-yl)-1,3,5-triazinane-2,4-dione], for which the IC50 in assay [4] (empty vector-transformed leaf discs, treated for 48 h) came out at 0.011 µM.

Values taken from US11879132B2, “Plants having increased tolerance to herbicides” (BASF AGRO B.V., priority 2016, dated 2024).
